Patent US7211572B2 (Japan Tobacco Inc., priority 2003, dated 2007)
Structures can show the parent of a compound that is named as a salt.

What follows are compounds tested against T1, HIV integrase (Human immunodeficiency virus type 1 group M subtype B, UniProt P12497, F1332H) (assay: Determination of enzyme (HIV integrase) inhibitory activity). Conditions: recombinant HIV integrase (F185H), strand transfer ELISA, absorbance at 450 nm.
T1 construct: HIV integrase full length gene; made in house; host or cells: Escherichia coli BL21(DE3), plasmid pET21a-INH
Format: biochemical
In short: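 Full-length integrase with F185H, expressed in E. coli and purified, was reacted for 60 min at 37 °C with compound and biotinylated donor DNA bound to streptavidin plates. Target DNA was added for 10 min, then anti-digoxigenin-peroxidase detection at A450; IC50 from % inhibition versus enzyme-free blank.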
With Cc1csc(-c2cn3c(c(O)c2=O)C(=O)N(Cc2cccc(Cl)c2)CC3)n1 [Example 255, 2-(3-chlorobenzyl)-9-hydroxy-7-(4-methylthiazol-2-yl)-3,4-dihydro-2H-pyrido[1,2-a]pyrazine-1,8-dione] the IC50 was < 10 nM.
With CCCC(=O)Nc1cn2ccn(Cc3cccc(Cl)c3)c(=O)c2c(O)c1=O [Example 256, N-[2-(3-chlorobenzyl)-9-hydroxy-1,8-dioxo-1,8-dihydro-2H-pyrido[1,2-a]pyrazin-7-yl]butyramide] the IC50 was < 10 nM.
In the case of O=C(Nc1cn2ccn(Cc3cccc(Cl)c3)c(=O)c2c(O)c1=O)c1ccccc1 [Example 257, N-[2-(3-chlorobenzyl)-9-hydroxy-1,8-dioxo-1,8-dihydro-2H-pyrido[1,2-a]pyrazin-7-yl]benzamide], the IC50 is reported as < 10 nM.
In the case of O=C(CCc1ccccc1)Nc1cn2ccn(Cc3cccc(Cl)c3)c(=O)c2c(O)c1=O [Example 258, N-[2-(3-chlorobenzyl)-9-hydroxy-1,8-dioxo-1,8-dihydro-2H-pyrido[1,2-a]pyrazin-7-yl]-3-phenylpropionamide], the IC50 is reported as < 10 nM.
In the case of CC(=O)N(C)c1cn2ccn(Cc3cccc(Cl)c3)c(=O)c2c(O)c1=O [Example 259, N-[2-(3-chlorobenzyl)-9-hydroxy-1,8-dioxo-1,8-dihydro-2H-pyrido[1,2-a]pyrazin-7-yl]-N-methylacetamide], the IC50 is reported as < 10 nM.
In the case of COCC(=O)Nc1cn2ccn(Cc3cccc(Cl)c3)c(=O)c2c(O)c1=O [Example 260, N-[2-(3-chlorobenzyl)-9-hydroxy-1,8-dioxo-1,8-dihydro-2H-pyrido[1,2-a]pyrazin-7-yl]-2-methoxyacetamide], the IC50 is reported as < 10 nM.
Compound COC(=O)c1cn2c(c(O)c1=O)C(=O)N(Cc1cccc(Cl)c1)CC2 [Example 261, methyl 2-(3-chlorobenzyl)-9-hydroxy-1,8-dioxo-1,3,4,8-tetrahydro-2H-pyrido[1,2-a]pyrazine-7-carboxylate] has an IC50 of 10 to 100 nM.
In the case of CN(C)C(=O)Nc1cn2ccn(Cc3cccc(Cl)c3)c(=O)c2c(O)c1=O [Example 262, 3-[2-(3-chlorobenzyl)-9-hydroxy-1,8-dioxo-1,8-dihydro-2H-pyrido[1,2-a]pyrazin-7-yl]-1,1-dimethylurea], the IC50 is reported as < 10 nM.
For COC(=O)Nc1cn2ccn(Cc3cccc(Cl)c3)c(=O)c2c(O)c1=O [Example 263, methyl[2-(3-chlorobenzyl)-9-hydroxy-1,8-dioxo-1,8-dihydro-2H-pyrido[1,2-a]pyrazin-7-yl]carbamate], the IC50 was < 10 nM.
For O=C1c2c(O)c(=O)c(-c3nccs3)cn2CCN1CCCc1c(F)cccc1Cl [Example 264, 2-[3-(2-chloro-6-fluorophenyl)propyl]-9-hydroxy-7-(thiazol-2-yl)-3,4-dihydro-2H-pyrido[1,2-a]pyrazine-1,8-dione], the IC50 was < 10 nM.
With CC(=O)C(=O)Nc1cn2ccn(Cc3cccc(Cl)c3)c(=O)c2c(O)c1=O [Example 265, N-[2-(3-chlorobenzyl)-9-hydroxy-1,8-dioxo-1,8-dihydro-2H-pyrido[1,2-a]pyrazin-7-yl]-2-oxopropionamide] the IC50 was < 10 nM.
For O=C(NCc1ccccc1)c1cn2c(c(O)c1=O)C(=O)N(Cc1cccc(Cl)c1)CC2 [Example 266, N-benzyl-2-(3-chlorobenzyl)-9-hydroxy-1,8-dioxo-1,3,4,8-tetrahydro-2H-pyrido[1,2-a]pyrazine-7-carboxamide], the IC50 was < 10 nM.
For O=C1c2c(O)c(=O)c(-c3cc[nH]n3)cn2CCN1Cc1cccc(Cl)c1 [Example 267, 2-(3-chlorobenzyl)-9-hydroxy-7-(1H-pyrazol-3-yl)-3,4-dihydro-2H-pyrido[1,2-a]pyrazine-1,8-dione], the IC50 was 10 to 100 nM.
O=C1c2c(O)c(=O)c(-c3ccncn3)cn2CCN1Cc1cccc(Cl)c1 [Example 268, 2-(3-chlorobenzyl)-9-hydroxy-7-(pyrimidin-4-yl)-3,4-dihydro-2H-pyrido[1,2-a]pyrazine-1,8-dione] was tested, and the IC50 was < 10 nM.
For O=C(NCc1cccc2ccccc12)c1cn2c(c(O)c1=O)C(=O)N(Cc1cccc(Cl)c1)CC2 [Example 269, N-(naphthalen-1-ylmethyl)-2-(3-chlorobenzyl)-9-hydroxy-1,8-dioxo-1,3,4,8-tetrahydro-2H-pyrido [1,2-a]pyrazine-7-carboxamide], the IC50 was < 10 nM.
For O=C(NC(c1ccccc1)c1ccccc1)c1cn2c(c(O)c1=O)C(=O)N(Cc1cccc(Cl)c1)CC2 [Example 270, N-benzhydryl-2-(3-chlorobenzyl)-9-hydroxy-1,8-dioxo-1,3,4,8-tetrahydro-2H-pyrido[1,2-a]pyrazine-7-carboxamide], the IC50 was 10 to 100 nM.
Work on O=C1c2c(O)c(=O)c(-c3ncccn3)cn2CCN1Cc1cccc(Cl)c1 [Example 271, 2-(3-chlorobenzyl)-9-hydroxy-7-(pyrimidin-2-yl)-3,4-dihydro-2H-pyrido[1,2-a]pyrazine-1,8-dione hydrochloride] yielded an IC50 of 10 to 100 nM.
With CC(C)(C(=O)c1cn2c(c(O)c1=O)C(=O)N(Cc1cccc(Cl)c1)CC2)c1ccccc1 [Example 272, 2-(3-chlorobenzyl)-9-hydroxy-7-(2-methyl-2-phenylpropionyl)-3,4-dihydro-2H-pyrido[1,2-a]pyrazine-1,8-dione] the IC50 was 10 to 100 nM.
CC(C)(C)c1ccc(CNC(=O)c2cn3c(c(O)c2=O)C(=O)N(Cc2cccc(Cl)c2)CC3)cc1 [Example 273, N-(4-tert-butylbenzyl)-2-(3-chlorobenzyl)-9-hydroxy-1,8-dioxo-1,3,4,8-tetrahydro-2H-pyrido [1,2-a] pyrazine-7-carboxamide] gave an IC50 of 10 to 100 nM.
For O=C(Nc1cn2ccn(Cc3cccc(Cl)c3)c(=O)c2c(O)c1=O)C1CCCC1 [Example 274, N-[2-(3-chlorobenzyl)-9-hydroxy-1,8-dioxo-1,8-dihydro-2H-pyrido[1,2-a]pyrazin-7-yl)cyclopentanecarboxamide], the IC50 was 10 to 100 nM.
O=C(Cc1ccc(F)cc1)Nc1cn2ccn(Cc3cccc(Cl)c3)c(=O)c2c(O)c1=O [Example 275, N-[2-(3-chlorobenzyl)-9-hydroxy-1,8-dioxo-1,8-dihydro-2H-pyrido[1,2-a]pyrazin-7-yl]-2-(4-fluorophenyl)acetamide] was tested, and the IC50 was < 10 nM.
CC(C)(C)C(=O)Nc1cn2ccn(Cc3cccc(Cl)c3)c(=O)c2c(O)c1=O [Example 276, N-[2-(3-chlorobenzyl)-9-hydroxy-1,8-dioxo-1,8-dihydro-2H-pyrido[1,2-a]pyrazin-7-yl]-2,2-dimethylpropionamide] was tested, and the IC50 was < 10 nM.
CC(C)(C(=O)Nc1cn2ccn(Cc3cccc(Cl)c3)c(=O)c2c(O)c1=O)c1ccccc1 [Example 277, N-[2-(3-chlorobenzyl)-9-hydroxy-1,8-dioxo-1,8-dihydro-2H-pyrido[1,2-a]pyrazin-7-yl]-2-phenylisobutyramide] was tested, and the IC50 was < 10 nM.
With O=C(Nc1cn2ccn(Cc3cccc(Cl)c3)c(=O)c2c(O)c1=O)c1ccc(F)cc1 [Example 278, N-[2-(3-chlorobenzyl)-9-hydroxy-1,8-dioxo-1,8-dihydro-2H-pyrido[1,2-a]pyrazin-7-yl]-4-fluorobenzamide] the IC50 was < 10 nM.
In the case of O=C(Nc1cn2ccn(Cc3cccc(Cl)c3)c(=O)c2c(O)c1=O)c1ccccn1 [Example 279, N-[2-(3-chlorobenzyl)-9-hydroxy-1,8-dioxo-1,8-dihydro-2H-pyrido[1,2-a]pyrazin-7-yl]pyridine-2-carboxamide trifluoroacetate], the IC50 is reported as < 10 nM.
CC(C)Nc1cn2ccn(Cc3cccc(Cl)c3)c(=O)c2c(O)c1=O [Example 280, 2-(3-chlorobenzyl)-9-hydroxy-7-isopropylamino-2H-pyrido [1,2-a]pyrazine-1,8-dione hydrochloride] was tested, and the IC50 was 10 to 100 nM.
CCN(CC)c1cn2ccn(Cc3cccc(Cl)c3)c(=O)c2c(O)c1=O [Example 281, 2-(3-chlorobenzyl)-7-diethylamino-9-hydroxy-2H-pyrido[1,2-a]pyrazine-1,8-dione hydrochloride] gave an IC50 of 10 to 100 nM.
O=C1c2c(O)c(=O)c(-c3ccccn3)cn2CCN1Cc1cccc(Cl)c1 [Example 282, 2-(3-chlorobenzyl)-9-hydroxy-7-(pyridin-2-yl)-3,4-dihydro-2H-pyrido[1,2-a]pyrazine-1,8-dione hydrochloride] was tested, and the IC50 was < 10 nM.
CC(C)CNc1cn2ccn(Cc3cccc(Cl)c3)c(=O)c2c(O)c1=O [Example 283, 2-(3-chlorobenzyl)-9-hydroxy-7-isobutylamino-2H-pyrido[1,2-a]pyrazine-1,8-dione hydrochloride] was tested, and the IC50 was 10 to 100 nM.
CC(C)C(C(=O)Nc1cn2ccn(Cc3cccc(Cl)c3)c(=O)c2c(O)c1=O)C(C)C [Example 284, N-[2-(3-chlorobenzyl)-9-hydroxy-1,8-dioxo-1,8-dihydro-2H-pyrido[1,2-a]pyrazin-7-yl] -2-isopropyl-3-methylbutyramide] was tested, and the IC50 was 10 to 100 nM.
Work on CCNc1cn2ccn(Cc3cccc(Cl)c3)c(=O)c2c(O)c1=O [Example 285, 2-(3-chlorobenzyl)-7-ethylamino-9-hydroxy-2H-pyrido[1,2-a]pyrazine-1,8-dione hydrochloride] yielded an IC50 of 10 to 100 nM.
For O=C(Nc1cn2ccn(Cc3cccc(Cl)c3)c(=O)c2c(O)c1=O)c1cccnc1 [Example 286, N-[2-(3-chlorobenzyl)-9-hydroxy-1,8-dioxo-1,8-dihydro-2H-pyrido[1,2-a]pyrazin-7-yl]nicotinamide trifluoroacetate], the IC50 was < 10 nM.
In the case of O=C(Nc1cn2ccn(Cc3cccc(Cl)c3)c(=O)c2c(O)c1=O)c1ccncc1 [Example 287, N-[2-(3-chlorobenzyl)-9-hydroxy-1,8-dioxo-1,8-dihydro-2H-pyrido[1,2-a]pyrazin-7-yl]isonicotinamide trifluoroacetate], the IC50 is reported as < 10 nM.
For O=C(Nc1cn2ccn(Cc3cccc(Cl)c3)c(=O)c2c(O)c1=O)c1ccco1 [Example 288, N-[2-(3-chlorobenzyl)-9-hydroxy-1,8-dioxo-1,8-dihydro-2H-pyrido[1,2-a]pyrazin-7-yl]furan-2-carboxamide], the IC50 was < 10 nM.
For O=C(Nc1cn2ccn(Cc3cccc(Cl)c3)c(=O)c2c(O)c1=O)c1cccs1 [Example 289, N-[2-(3-chlorobenzyl)-9-hydroxy-1,8-dioxo-1,8-dihydro-2H-pyrido[1,2-a]pyrazin-7-yl]thiophene-2-carboxamide], the IC50 was < 10 nM.
